Test results: PubChem BioAssay AID1963847 (Molecular Pharmacology Branch, DTP, NCI, 2024)

Test system: 415267-285-R-J2-PDC complex spheroid viability
Experiment: Anticancer human tumor 415267-285-R-J2-PDC patient-derived breast carcinoma cell line growth inhibition [POLQ]
Details: for IC50: curve of first compound; for viability, T/C: stronger effect = lower value; active = viability on the fitted dose curve at most 10% of control; inactive = the rest
How it was run: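 Growth inhibition in 3D: complex spheroids (tumor PDC, HUVEC, MSC) treated with POLQ inhibitor combinations; where Cmax unknown, highest tested concentration 10 microM, except SN-38 at 1 microM.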

[1] = second compound 0.0316 µM, first compound 0.0316 µM
[2] = second compound 0.0316 µM, first compound 0.1 µM
[3] = second compound 0.1 µM, first compound 0.0316 µM
[4] = second compound 0.1 µM, first compound 0.1 µM
[5] = second compound 0.316 µM, first compound 0.0316 µM
[6] = second compound 0.316 µM, first compound 0.1 µM
[7] = second compound 1 µM, first compound 0.0316 µM
[8] = second compound 1 µM, first compound 0.1 µM
[9] = second compound 3.16 µM, first compound 0.0316 µM
[10] = second compound 3.16 µM, first compound 0.1 µM
[11] = second compound 10 µM, first compound 0.0316 µM
[12] = second compound 10 µM, first compound 0.1 µM
[13] = second compound 0.0316 µM, first compound 0.316 µM
[14] = second compound 0.0316 µM, first compound 1 µM
[15] = second compound 0.0316 µM, first compound 3.16 µM
[16] = second compound 0.0316 µM, first compound 10 µM
[17] = second compound 0.1 µM, first compound 0.316 µM
[18] = second compound 0.1 µM, first compound 1 µM
[19] = second compound 0.1 µM, first compound 3.16 µM
[20] = second compound 0.1 µM, first compound 10 µM
[21] = second compound 0.316 µM, first compound 0.316 µM
[22] = second compound 0.316 µM, first compound 1 µM
[23] = second compound 0.316 µM, first compound 3.16 µM
[24] = second compound 0.316 µM, first compound 10 µM
[25] = second compound 1 µM, first compound 0.316 µM
[26] = second compound 1 µM, first compound 1 µM
[27] = second compound 1 µM, first compound 3.16 µM
[28] = second compound 1 µM, first compound 10 µM
[29] = second compound 3.16 µM, first compound 0.316 µM
[30] = second compound 3.16 µM, first compound 1 µM
[31] = second compound 3.16 µM, first compound 3.16 µM
[32] = second compound 3.16 µM, first compound 10 µM
[33] = second compound 10 µM, first compound 0.316 µM
[34] = second compound 10 µM, first compound 1 µM
[35] = second compound 10 µM, first compound 3.16 µM
[36] = second compound 10 µM, first compound 10 µM
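Also: spheroids exposed to compounds for one week before readout.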
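For viability, T/C in this document: luminescence used as stand-in measure of viable cells; 100% = DMSO vehicle control viability.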

CC[C@@]1(O)C(=O)OCc2c1cc1n(c2=O)Cc2cc3c(CN(C)C)c(O)ccc3nc2-1 + COC1C(OC(N)=O)C(O)C(Oc2ccc3c(O)c(NC(=O)c4ccc(O)c(CC=C(C)C)c4)c(=O)oc3c2C)OC1(C)C
inactive: viability, T/C (second compound 0.0316 µM, first compound 0.000316 µM) 101% | viability, T/C (second compound 0.0316 µM, first compound 0.001 µM) 99% | viability, T/C (second compound 0.0316 µM, first compound 0.00316 µM) 101% | viability, T/C (second compound 0.0316 µM, first compound 0.01 µM) 82% | viability, T/C [1] 22.1% | viability, T/C (second compound 0.1 µM, first compound 0.000316 µM) 94% | viability, T/C (second compound 0.1 µM, first compound 0.001 µM) 98.6% | viability, T/C (second compound 0.1 µM, first compound 0.00316 µM) 97.4% | viability, T/C (second compound 0.1 µM, first compound 0.01 µM) 83.3% | viability, T/C [3] 36.1% | viability, T/C (second compound 0.316 µM, first compound 0.000316 µM) 90% | viability, T/C (second compound 0.316 µM, first compound 0.001 µM) 101% | viability, T/C (second compound 0.316 µM, first compound 0.00316 µM) 103% | viability, T/C (second compound 0.316 µM, first compound 0.01 µM) 107% | viability, T/C [5] 26.7% | viability, T/C [6] 10.8% | viability, T/C (second compound 1 µM, first compound 0.000316 µM) 93.6% | viability, T/C (second compound 1 µM, first compound 0.001 µM) 99.7% | viability, T/C (second compound 1 µM, first compound 0.00316 µM) 88.6% | viability, T/C (second compound 1 µM, first compound 0.01 µM) 84.6% | viability, T/C [7] 24.1% | viability, T/C (second compound 3.16 µM, first compound 0.000316 µM) 98.4% | viability, T/C (second compound 3.16 µM, first compound 0.001 µM) 97.4% | viability, T/C (second compound 3.16 µM, first compound 0.00316 µM) 105% | viability, T/C (second compound 3.16 µM, first compound 0.01 µM) 94% | viability, T/C [9] 17.8% | viability, T/C (second compound 10 µM, first compound 0.000316 µM) 103% | viability, T/C (second compound 10 µM, first compound 0.001 µM) 107% | viability, T/C (second compound 10 µM, first compound 0.00316 µM) 107% | viability, T/C (second compound 10 µM, first compound 0.01 µM) 85.8% | viability, T/C [11] 24.6%
0.0194 µM: IC50 (second compound 3.16 µM)
0.0226 µM: IC50 (second compound 0.1 µM)
active: viability, T/C [2] 9.06% | viability, T/C [4] 8.11% | viability, T/C [8] 8.54% | viability, T/C [10] 7.35% | viability, T/C [12] 7.99%
0.0185 µM: IC50 (second compound 0.0316 µM)
0.0193 µM: IC50 (second compound 1 µM)
0.0196 µM: IC50 (second compound 10 µM)
0.022 µM: IC50 (second compound 0.316 µM)

COc1cc(C2c3cc4c(cc3C(OC3OC5COC(C)OC5C(O)C3O)C3COC(=O)C23)OCO4)cc(OC)c1O (stereo not drawn) + COC1C(OC(N)=O)C(O)C(Oc2ccc3c(O)c(NC(=O)c4ccc(O)c(CC=C(C)C)c4)c(=O)oc3c2C)OC1(C)C
0.149 µM: IC50 (second compound 0.316 µM)
0.155 µM: IC50 (second compound 0.0316 µM)
0.153 µM: IC50 (second compound 1 µM)
0.156 µM: IC50 (second compound 0.1 µM)
active: viability, T/C [14] 8.42% | viability, T/C [15] 5.21% | viability, T/C [16] 6.94% | viability, T/C [18] 8.54% | viability, T/C [19] 5.95% | viability, T/C [20] 5.76% | viability, T/C [22] 8.42% | viability, T/C [23] 5.87% | viability, T/C [24] 6.37% | viability, T/C [26] 7.07% | viability, T/C [27] 6.69% | viability, T/C [28] 5.99% | viability, T/C [30] 8.05% | viability, T/C [31] 5.46% | viability, T/C [32] 6.77% | viability, T/C [34] 8.14% | viability, T/C [35] 6.45% | viability, T/C [36] 5.77%
0.166 µM: IC50 (second compound 3.16 µM)
0.163 µM: IC50 (second compound 10 µM)
inactive: viability, T/C [1] 88.3% | viability, T/C [2] 72.4% | viability, T/C [13] 13.8% | viability, T/C [3] 97.4% | viability, T/C [4] 72.1% | viability, T/C [17] 14.5% | viability, T/C [5] 97.7% | viability, T/C [6] 69.6% | viability, T/C [21] 12.8% | viability, T/C [7] 98.3% | viability, T/C [8] 71.6% | viability, T/C [25] 13.1% | viability, T/C [9] 87.1% | viability, T/C [10] 75.9% | viability, T/C [29] 17% | viability, T/C [11] 101% | viability, T/C [12] 75.6% | viability, T/C [33] 15.3%

COc1cccc2c1C(=O)c1c(O)c3c(c(O)c1C2=O)CC(O)(C(=O)CO)CC3OC1CC(N)C(O)C(C)O1 (stereo not drawn) + COC1C(OC(N)=O)C(O)C(Oc2ccc3c(O)c(NC(=O)c4ccc(O)c(CC=C(C)C)c4)c(=O)oc3c2C)OC1(C)C
< 0.0316 µM: IC50 (second compound 1 µM)
inactive: viability, T/C [1] 66.1% | viability, T/C [2] 12.3% | viability, T/C [3] 55.7% | viability, T/C [4] 17.9% | viability, T/C [5] 54.2% | viability, T/C [6] 12% | viability, T/C [7] 48.8% | viability, T/C [8] 11.6% | viability, T/C [9] 58.4% | viability, T/C [10] 12.5% | viability, T/C [11] 63.9% | viability, T/C [12] 16%
0.039 µM: IC50 (second compound 3.16 µM)
active: viability, T/C [13] 5.33% | viability, T/C [14] 1.27% | viability, T/C [15] 0.99% | viability, T/C [16] 3% | viability, T/C [17] 5.82% | viability, T/C [18] 0.96% | viability, T/C [19] 1.01% | viability, T/C [20] 2.7% | viability, T/C [21] 4.95% | viability, T/C [22] 0.99% | viability, T/C [23] 0.89% | viability, T/C [24] 2.53% | viability, T/C [25] 5.43% | viability, T/C [26] 1.06% | viability, T/C [27] 1.03% | viability, T/C [28] 2.68% | viability, T/C [29] 4.68% | viability, T/C [30] 1.06% | viability, T/C [31] 1.25% | viability, T/C [32] 2.55% | viability, T/C [33] 5.78% | viability, T/C [34] 1.44% | viability, T/C [35] 1.38% | viability, T/C [36] 3.32%
0.0446 µM: IC50 (second compound 0.0316 µM)
0.044 µM: IC50 (second compound 10 µM)
0.0352 µM: IC50 (second compound 0.316 µM)
0.0375 µM: IC50 (second compound 0.1 µM)

O=c1[nH]cc(F)c(=O)[nH]1 + COC1C(OC(N)=O)C(O)C(Oc2ccc3c(O)c(NC(=O)c4ccc(O)c(CC=C(C)C)c4)c(=O)oc3c2C)OC1(C)C
0.197 µM: IC50 (second compound 0.1 µM)
0.176 µM: IC50 (second compound 1 µM)
0.162 µM: IC50 (second compound 0.316 µM)
inactive: viability, T/C [1] 94.1% | viability, T/C [2] 72.7% | viability, T/C [13] 33.1% | viability, T/C [14] 31.1% | viability, T/C [15] 27.2% | viability, T/C [16] 37.1% | viability, T/C [3] 86.9% | viability, T/C [4] 73.1% | viability, T/C [17] 34.2% | viability, T/C [18] 23.7% | viability, T/C [19] 26.5% | viability, T/C [20] 39.3% | viability, T/C [5] 97.7% | viability, T/C [6] 63.8% | viability, T/C [21] 31% | viability, T/C [22] 27.2% | viability, T/C [23] 26.7% | viability, T/C [24] 34.5% | viability, T/C [7] 85.8% | viability, T/C [8] 63.5% | viability, T/C [25] 36.8% | viability, T/C [26] 25.3% | viability, T/C [27] 26.4% | viability, T/C [28] 29.9% | viability, T/C [9] 94.6% | viability, T/C [10] 76.3% | viability, T/C [29] 34.2% | viability, T/C [30] 27.1% | viability, T/C [31] 25.4% | viability, T/C [32] 37.2% | viability, T/C [11] 92% | viability, T/C [12] 70% | viability, T/C [33] 37.8% | viability, T/C [34] 29.9% | viability, T/C [35] 25.3% | viability, T/C [36] 35.7%
0.205 µM: IC50 (second compound 3.16 µM)
0.203 µM: IC50 (second compound 10 µM)
0.194 µM: IC50 (second compound 0.0316 µM)
